In this experiment the target is T1, guanylate cyclase (Oryctolagus cuniculus, UniProt G1TXB5).
T1 sequence (G1TXB5 28-1056): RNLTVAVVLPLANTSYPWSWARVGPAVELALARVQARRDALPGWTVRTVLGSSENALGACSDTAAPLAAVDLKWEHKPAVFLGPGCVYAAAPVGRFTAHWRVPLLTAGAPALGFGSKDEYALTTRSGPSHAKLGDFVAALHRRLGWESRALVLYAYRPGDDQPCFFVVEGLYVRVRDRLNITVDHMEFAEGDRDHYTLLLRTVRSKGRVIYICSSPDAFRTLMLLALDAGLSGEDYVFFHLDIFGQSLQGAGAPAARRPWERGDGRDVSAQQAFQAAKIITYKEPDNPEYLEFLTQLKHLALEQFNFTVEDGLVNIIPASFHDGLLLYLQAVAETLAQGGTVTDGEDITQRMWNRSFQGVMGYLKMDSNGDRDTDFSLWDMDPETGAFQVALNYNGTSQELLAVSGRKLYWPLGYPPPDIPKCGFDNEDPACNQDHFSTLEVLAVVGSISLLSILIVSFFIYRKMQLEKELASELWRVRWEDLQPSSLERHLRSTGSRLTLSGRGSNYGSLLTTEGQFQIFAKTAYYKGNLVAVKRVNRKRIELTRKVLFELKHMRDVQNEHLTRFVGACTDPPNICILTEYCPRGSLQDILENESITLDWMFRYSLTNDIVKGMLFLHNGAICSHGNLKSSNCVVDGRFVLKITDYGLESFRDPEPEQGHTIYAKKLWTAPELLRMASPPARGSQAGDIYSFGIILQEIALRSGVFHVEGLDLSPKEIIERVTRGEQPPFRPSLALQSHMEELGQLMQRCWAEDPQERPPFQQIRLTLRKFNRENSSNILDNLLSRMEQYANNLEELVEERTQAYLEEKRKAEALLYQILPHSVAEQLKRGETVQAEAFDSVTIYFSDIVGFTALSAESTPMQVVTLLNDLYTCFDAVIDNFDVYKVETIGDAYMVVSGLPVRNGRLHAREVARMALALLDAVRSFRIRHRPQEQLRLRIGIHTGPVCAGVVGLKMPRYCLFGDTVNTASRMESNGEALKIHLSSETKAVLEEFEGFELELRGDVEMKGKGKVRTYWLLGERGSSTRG
The experiment is described as follows: Atriopeptin-activated guanylate cyclase in ciliary process membrane (P1) fractions. In kind it is biochemical, rabbit. The arrangement: tissues were homogenized (10 mg wet weight per milliliter); from tissue; host or cells: rabbit cerebral microvessels, choroid plexus, kidney, ciliary process, pia-arachnoid, cerebellum; 100,000 g P1 pellet. The following applies: mean ± range of duplicate determinations. As to the method:
Ciliary process tips were obtained from male, 3-4 kg, New Zealand white rabbits, immediately following sacrifice with an overdose of ether, as described in Nathanson, Invest. Ophthal. Vis. Sci., 21:7981 (1982). The tissue was minced and homogenized (10 mg/ml) by hand in a glass-glass homogenizer in a buffer consisting of 50 mM Tris HCl, pH 8.0; 1mM EDTA, and 250mM sucrose. The homogenate was diluted 30-fold with buffer and centrifuged at 100,000 x g, to obtain a P1 fraction. The pellet was rehomogenized in the original volume and left on ice until use. P1 fractions were also prepared from wedges of rabbit kidney taken from the same animals. In some experiments, P1 fractions were prepared from iris and from ciliary body, as described in Nathanson, Proc. Natl. Acad. Sci. USA, 77:7420 (1980). Briefly, iris was removed from its attachment to the ciliary body, cleaned of adhering ciliary process tissue, washed, and homogenized as above. The ciliary muscle was cleaned of most remaining ciliary process tissue, freed from the underlying sclera by blunt and sharp dissection, and then washed and homogenized.
Atriopeptin-activated guanylate cyclase activity was measured as the rate of conversion of GTP to cyclic GMP. […]
For RIA, each tube contained (in 0.5ml), 50mM sodium acetate buffer (pH 6.2), 2mM EDTA, 1mg/ml bovine serum albumin, 0.1 ml of sample (or diluted sample), 8,000-15,000 cpm (about 5 fmole) of ¹²⁵I succinyl cyclic GMP tyrosine methyl ester, and antibody to bind 25-35% of the label. […] Activation constants (Ka) were determined from dose-response curves utilizing 12-14 data points (6-7 concentrations of hormone, in duplicate), each point representing the mean of triplicate RIA determinations.
Atriopeptin-activated guanylate cyclase activity was measured, as described in Example 5, in membranes from rabbit kidney and ciliary process prepared as in Example 4. […]

For “Ser-Leu-Arg-Arg-atriopeptin III (APIII) [rANP 1-28]”, the “Vmax Stimulation (%) of Guanylate Cyclase Ciliary Process” value was found to be 124 ± 5%.

On to “rANP 13-28 (DRIGAQSGLGCNSFRY; Atrial natriuretic peptide; UniProt P01161 135-150, looked up, fragment)”, for which the “Vmax Stimulation (%) of Guanylate Cyclase Ciliary Process” value came out at 51 ± 5%.

These data come from patent EP0583821A1, “Atriopeptins, guanylate cyclase activators, and phosphodiesterase inhibitors as treatment for glaucoma, hydrocephalus and cerebral edema (cranial fluid volume dysfunction)” (THE GENERAL HOSPITAL CORPORATION, priority 1987, dated 1988).
